Assay results as given in patent US9839640B2, “Methods of treating eye diseases associated with inflammation and vascular proliferation” (OccuRx Pty Ltd, priority 2010, dated 2017).

Tests used:
Format in all cases: in vivo, rat
[1] = test system: leukocytes in the retina; assay: Leukostasis (short term study), rhodamine-coupled Concanavalin A staining of retina
Procedure: (§1) Ninety, six-week old female, heterozygous (mRen-2) 27 rats (St. Vincent's Hospital Animal House, Melbourne, Australia) were assigned to receive either 55 mg/kg of streptozotocin (STZ) (Sigma, St. Louis, USA) diluted in 0.1 M citrate buffer, pH 4.5 or citrate buffer alone (non-diabetic control) by tail vein injection following an overnight fast. In short term study, rats were randomly assigned to receive (n=10/group) treatment with either FT011 (100 mg/kg bid gavage) or vehicle for 8 weeks. Non-diabetic animals (n=10) served as controls. In the long term study, at 16 weeks of STZ diabetes rats were randomly assigned to either treatment (n=15/group) with, FT011 (50 mg/kg/day BID), FT011 (100 mg/kg BID) or no treatment for a further 16 weeks. Non-diabetic animals (n=15) served as controls. Each week, rats were weighed and their blood glucose levels were measured (Accu-check Advantage II Blood Glucose Monitor, Roche Diagnostics, USA) and only STZ-treated animals with blood glucose >15 mmol/L were considered diabetic. Every 4 weeks, SBP was determined in preheated conscious rats via tail-cuff plethysmography using a non-invasive blood pressure (NIBP) controller and Powerlab (AD instruments, NSW, Australia). Haemoglobin A1c (HbA1c) was measured by HPLC at the end of the study in the Department of Pathology, St Vincent's Hospital. […]

[2] = test system: acellular capillaries; assay: Trypsin digest, acellular capillaries in PAS stained retina (long term study 32 weeks); conditions: diabetic rats, 100 mg/kg/day FT011, long term study
Procedure: as §1

[3] = Animal characteristics (32 weeks study), STZ diabetic (mRen-2) 27 rats treated with FT011
Procedure: as §1

[4] = test system: ICAM-1 mRNA; assay: Real time PCR of retinal ICAM-1 mRNA (short term study); conditions: FIG. 3; diabetic rats treated with FT011, short term 8 week study; normalised to 18S rRNA
Procedure: as §1

[5] = Animal characteristics (8 weeks study), STZ diabetic (mRen-2) 27 rats treated with FT011; conditions: FT011 200 mg/kg/day (100 mg/kg bid gavage), P < 0.05 versus untreated diabetes
Procedure: as §1

[6] = test system: ICAM-1 mRNA; assay: Real time PCR of retinal ICAM-1 mRNA (FT061 study); conditions: FIG. 8; diabetic rats, FT061 100 mg/kg/day 8 weeks, compared to controls and untreated diabetes
Procedure: (§2) Sixty, six-week old female, heterozygous (mRen-2) 27 rats (St. Vincent's Hospital Animal House, Melbourne, Australia) were assigned to receive either 55 mg/kg of streptozotocin (STZ) (Sigma, St. Louis, USA) diluted in 0.1 M citrate buffer, pH 4.5 or citrate buffer alone (non-diabetic control) by tail vein injection following an overnight fast. Rats were randomly assigned to receive (n=15/group) treatment with either FT061 (100 mg/kg/day gavage) or vehicle for 8 weeks. Non-diabetic animals (n=15) served as controls. Each week, rats were weighed and their blood glucose levels were measured (Accu-check Advantage II Blood Glucose Monitor, Roche Diagnostics, USA) and only STZ-treated animals with blood glucose >15 mmol/L were considered diabetic. Every 4 weeks, SBP was determined in preheated conscious rats via tail-cuff plethysmography using a non-invasive blood pressure (NIBP) controller and Powerlab (AD instruments, NSW, Australia). […]
(§3) At the end of the study, rats were anaesthetized with lethobarb (60 mg/kg), eyes were enucleated and retinae dissected and placed in RNAlater (#R0901, Sigma-Aldrich). […] RNA concentration was determined on a Nanodrop 3.1.2, after which 1 μg of RNA was DNase treated (DNA-free kit, Ambion) and reverse transcribed (First Strand cDNA Synthesis Kit for RT-PCR, Roche). […]

[7] = test system: VEGF mRNA; assay: Real time PCR of retinal VEGF mRNA (FT061 study); conditions: FIG. 9; diabetic rats, FT061 100 mg/kg/day 8 weeks, compared to controls and untreated diabetes
Procedure: as §2, §3

[8] = test system: leukocytes in the retina; assay: Leukostasis, rhodamine-coupled Concanavalin A staining of retina (FT061 study)
Procedure: Sixty, six-week old female, heterozygous (mRen-2) 27 rats (St. Vincent's Hospital Animal House, Melbourne, Australia) were assigned to receive either 55 mg/kg of streptozotocin (STZ) (Sigma, St. Louis, USA) diluted in 0.1 M citrate buffer, pH 4.5 or citrate buffer alone (non-diabetic control) by tail vein injection following an overnight fast. Rats were randomly assigned to receive (n=15/group) treatment with either FT061 (100 mg/kg/day gavage) or vehicle for 8 weeks. Non-diabetic animals (n=15) served as controls. Each week, rats were weighed and their blood glucose levels were measured (Accu-check Advantage II Blood Glucose Monitor, Roche Diagnostics, USA) and only STZ-treated animals with blood glucose >15 mmol/L were considered diabetic. Every 4 weeks, SBP was determined in preheated conscious rats via tail-cuff plethysmography using a non-invasive blood pressure (NIBP) controller and Powerlab (AD instruments, NSW, Australia). Diabetic rats received a daily injection of insulin (2-4 units intraperitoneally; Humulin NPH, Eli Lilly and Co., Indianapolis, Ind.) to reduce mortality and to promote weight gain.
At the end of the study, rats were anaesthetized with Lethobarb (60 mg/kg) and the chest cavity was opened. […] The total number of leukocytes was counted per retina. […]

SMILES | total number of leukocytes in the retina ([1]; FIG. 1, diabetic rats, FT011 100 mg/kg bid gavage 8 weeks, compared to untreated diabetic rats) | leukostasis (representative micrographs) ([1]; FIG. 2, diabetic rats treated with FT011, short term study) | number of acellular capillaries per field ([2]; FIG. 4, compared to untreated diabetic rats) | acellular capillaries (pericyte ghost), representative micrographs ([2]; FIG. 5) | HbA1C ([3]; FT011 100 mk/kg/day, P < 0.05 versus control) [%] | HbA1C ([3]; FT011 200 mk/kg/day, P < 0.05 versus untreated diabetes) [%] | retinal ICAM-1 mRNA levels [4] | HbA1C [5] [%] | retinal ICAM-1 mRNA levels [6] | retinal VEGF mRNA levels [7] | total number of leukocytes in the retina ([8]; FIG. 6, diabetic rats, FT061 100 mg/kg/day gavage 8 weeks, compared to untreated diabetic rats) | leukostasis (representative photomicrographs) ([8]; FIG. 7, diabetic rats treated with FT061)
C#CCOc1ccc(/C=C/C(=O)Nc2ccccc2C(=O)O)cc1OC [FT011] | significantly less | significantly reduced leukostasis | less acellular capillaries | pericyte ghosts were not apparent | 7.65 ± 0.25 | 6.58 ± 0.37 | reduction in ICAM-1 mRNA levels | 8.9 ± 0.50 | – | – | – | –
O=C(/C=C/c1ccc(OC(F)F)c(OC(F)F)c1)Nc1ccccc1C(=O)O [FT061] | – | – | – | – | – | – | – | – | reduction in ICAM-1 mRNA levels | reduction in VEGF mRNA levels | significantly less | significantly reduced leukostasis
